{"source": "patent US20050148607A1", "about": "“Preventives and/or remedies for subjects with the expression or activation of her2 and/or egfr” (priority 2002, published 2005)", "key": {"[1]": {"system": "human pancreatic cancer HPAC (both EGFR, Her2 positive)", "experiment": "In vivo antitumor effects, HPAC xenograft in nude mice", "conditions": "Balb/c nude mice, final day", "experimental": "(§1) Cultured human cancer cells suspended in PBS were implanted subcutaneously in the back of female Balb/c nude mice (Balb/cAJcl-nu mouse, CLEA Japan Inc., 5-week-old when received) at 5×10^6/100 μl. When about 7 days later and the average volume of the implanted tumors almost reached 100 mm^3, the mice were allotted by 4 mice per group such that the average tumor volume of each group became equal.\n(§2) For the tumor volume, the longer diameter and the shorter diameter were measured with calipers and calculated as [(shorter diameter)^2×(longer diameter/2)]=tumor volume [mm^3]. A pharmaceutical agent was administered by oral gavage once a day for 14 consecutively days from the day of allottment, and the pharmaceutical agent was not administered to the mice of the control group. The relative tumor growth rate was calculated based on the tumor volume on the administration start day for the pharmaceutical agent treatment group against the control group as rate 1. The antitumor effects are shown in % control. The % control was calculated by the following formula. % control=[(average relative tumor growth rate of pharmaceutical agent treatment group on the final day-1)/(average relative tumor growth rate of control group on the final day-1)]×100"}, "[2]": {"system": "human rectal cancer LS174T (EGFR negative, Her2 positive)", "experiment": "In vivo antitumor effects, LS174T xenograft in nude mice", "conditions": "Balb/c nude mice, final day", "experimental": "as §1, §2"}, "[3]": {"system": "EGFR overexpression cancer A431", "conditions": "EGFR overexpression cancer A431, literature; cited from earlier work"}, "[4]": {"system": "erbB3", "conditions": "MDA-MB-453 cells stimulated with Heregulin, literature; cited from earlier work"}, "[5]": {"system": "human lung cancer NCI-H520 (both EGFR, Her2 negative)", "experiment": "In vivo antitumor effects, NCI-H520 xenograft in nude mice", "conditions": "Balb/c nude mice, final day", "experimental": "as §1, §2"}, "[6]": {"system": "human cervical cancer ME180 (EGFR positive, Her2 negative)", "experiment": "In vivo antitumor effects, ME180 xenograft in nude mice", "conditions": "Balb/c nude mice, final day", "experimental": "as §1, §2"}, "[7]": {"conditions": "10 mg/kg oral once a day for 14 days"}, "[8]": {"conditions": "30 mg/kg oral once a day for 14 days"}}, "data": [{"smiles": "C=CC(=O)Nc1cc2c(Nc3ccc(F)c(Cl)c3)ncnc2cc1OCCCN1CCOCC1", "note": "[PD, N-[4-(3-chloro-4-fluorophenyl)amino-7-[3-(4-morpholinyl)propoxy]quinazolin-6-yl]acrylamide]", "values": [{"measurement": "% control", "setting": "[1]; [7]", "value": 39, "unit": "% control"}, {"measurement": "% control", "setting": "[1]; [8]", "value": 11, "unit": "% control"}, {"measurement": "% control", "setting": "[2]; [7]", "value": 56, "unit": "% control"}, {"measurement": "% control", "setting": "[2]; [8]", "value": 34, "unit": "% control"}, {"measurement": "in vivo antitumor effect", "setting": "[3]", "value": "shows an in vivo antitumor effect"}]}, {"smiles": "C=CC(=O)Nc1cc2c(Nc3ccc(F)c(Cl)c3)ncnc2cc1OCCCN1CCOCC1", "note": "[PD.2HCl]", "values": [{"measurement": "inhibition of tyrosine phosphorylation of erbB3", "setting": "[4]", "value": "inhibit tyrosine phosphorylation"}, {"measurement": "% control", "setting": "[5]; [7]", "value": 95, "unit": "% control"}, {"measurement": "% control", "setting": "[5]; [8]", "value": 87, "unit": "% control"}, {"measurement": "% control", "setting": "[6]; [7]", "value": 25, "unit": "% control"}, {"measurement": "% control", "setting": "[6]; [8]", "value": 17, "unit": "% control"}]}]}
